From patent publication US20250101019A1 (Insilico Medicine IP Limited, priority 2022, published 2025)

Key:
[1] = molecular target: T1, ENPP1 (Homo sapiens (Human), UniProt P22413); experiment: cGAMP-Glo enzymatic assay (2′3′-cGAMP substrate, AMP-Glo readout); type: biochemical; conditions: substrate 2′3′-cGAMP; 25° C. for 60 min; 50 mM Tris pH 8.8
Protocol: (§1) Example A: Enzymatic Assay
(§2) • 1. Diluted compounds in DMSO by hand for 11 points, 3 folds dilution. Then transferred 0.02 μL compounds to 384 assay plate by ECHO. • 2. Added 2 μL specified concentration of ENPP1 to 384 assay plate. Centrifuged 1000 RPM for 1 min. • 3. Added 2 μL specified concentration of ATP to the assay plate. Centrifuged 1000 RPM for 1 min. • 4. Incubated at 25° C. for 60 min. • 5. Added 4 μL AMP-Glo Reagent to the assay plates. • 6. Centrifuged 1000 RPM for 1 min, incubate at 25° C. for 1 hours. • 7. Added 8 μL Kinase Detection Reagent to the assay plates. • 8. Centrifuged 1000 RPM for 1 min, incubated at 25° C. for 1 hours. The final assay reaction mixture contained a buffer of 50 mM Tris pH 8.8, 250 mM NaCl and 0.1% BSA • 9. Read on Envision for US LUM as RLU. • 10. Analyzed the raw data using the equation (V. Data analysis). cGAMP-Glo Assay: • 1. Diluted compounds in DMSO by hand for 11 points, 3 folds dilution. Then transferred 0.02 μL compounds to 384 assay plate by ECHO. • 2. Added 2 μL specified concentration of ENPP1 to 384 assay plate, centrifuged 1000 RPM for 1 min. • 3. Added 2 μL specified concentration of 2′3′-cGAMP to the assay plate, centrifuged 1000 RPM for 1 min. • 4. Incubated at 25° C. for 60 min. • 5. Added 4 μL AMP-Glo Reagent to the assay plates. • 6. Centrifuged 1000 RPM for 1 min, incubated at 25° C. for 1 hours. • 7. Added 8 μL Kinase Detection Reagent to the assay plates. • 8. Centrifuged 1000 RPM for 1 min, incubate at 25° C. for 1 hours. The final assay reaction mixture contained a buffer of 50 mM Tris pH 8.8, 250 mM NaCl and 0.1% BSA • 9. Read on Envision for US LUM as RLU. • 10. Analyzed the raw data using the equation (V. Data analysis).

[2] = molecular target: T1, ENPP1; experiment: ATP-Glo enzymatic assay (ATP substrate, AMP-Glo readout); type: biochemical; conditions: 25° C. for 60 min, 50 mM Tris pH 8.8
Protocol: as §1, §2

T1 sequence (P22413 whole entry, species assumed): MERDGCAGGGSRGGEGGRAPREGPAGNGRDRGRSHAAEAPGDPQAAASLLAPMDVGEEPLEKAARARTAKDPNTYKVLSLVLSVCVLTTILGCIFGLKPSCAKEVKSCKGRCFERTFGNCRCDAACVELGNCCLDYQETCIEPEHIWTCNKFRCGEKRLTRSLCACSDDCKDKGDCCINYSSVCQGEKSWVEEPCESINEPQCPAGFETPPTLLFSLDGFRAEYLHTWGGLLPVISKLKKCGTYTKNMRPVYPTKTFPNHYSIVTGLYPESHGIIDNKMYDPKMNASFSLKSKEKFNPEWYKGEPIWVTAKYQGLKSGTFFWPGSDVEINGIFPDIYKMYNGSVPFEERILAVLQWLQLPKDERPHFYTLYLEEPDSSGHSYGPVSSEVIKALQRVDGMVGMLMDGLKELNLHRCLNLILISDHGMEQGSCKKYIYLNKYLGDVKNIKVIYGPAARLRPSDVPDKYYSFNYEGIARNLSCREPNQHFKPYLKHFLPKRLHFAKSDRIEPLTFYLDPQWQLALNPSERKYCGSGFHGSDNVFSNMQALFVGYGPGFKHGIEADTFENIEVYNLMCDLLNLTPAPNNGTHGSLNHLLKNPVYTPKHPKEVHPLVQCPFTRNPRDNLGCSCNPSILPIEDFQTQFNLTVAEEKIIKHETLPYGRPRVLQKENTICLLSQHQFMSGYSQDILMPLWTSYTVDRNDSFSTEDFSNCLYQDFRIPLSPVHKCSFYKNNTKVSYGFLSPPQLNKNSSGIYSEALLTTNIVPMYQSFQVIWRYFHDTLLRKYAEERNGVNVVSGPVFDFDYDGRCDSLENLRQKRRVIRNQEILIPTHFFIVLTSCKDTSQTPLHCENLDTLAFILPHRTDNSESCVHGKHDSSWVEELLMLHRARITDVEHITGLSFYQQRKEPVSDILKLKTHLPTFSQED

IC50 [1] [nM] | IC50 [2] [nM] | SMILES
< 1 | < 1 | Cc1ncc2nc(C(F)F)n(Cc3c(F)cc(S(N)(=O)=O)cc3F)c2c1-c1ccccc1 [Example 38, 4-((2-(difluoromethyl)-6-methyl-7-phenyl-1H-imidazo[4,5-c]pyridin-1-yl)methyl)-3,5-difluorobenzenesulfonamide]
< 1 | < 1 | [2H]C([2H])([2H])Oc1ncc2nc(C)n(Cc3ncc(S(N)(=O)=O)cc3F)c2c1-c1ccccc1 [Example 85, 5-fluoro-6-((6-(methoxy-d3)-2-methyl-7-phenyl-1H-imidazo[4,5-c]pyridin-1-yl)methyl)pyridine-3-sulfonamide]
< 1 | < 1 | Cc1ncc2nc(C)n(Cc3c(F)cc(S(N)(=O)=O)cc3F)c2c1-c1ccccc1F [Example 44, 3,5-difluoro-4-((7-(2-fluorophenyl)-2,6-dimethyl-1H-imidazo[4,5-c]pyridin-1-yl)methyl)benzenesulfonamide]
< 1 | < 1 | Cc1ncc2nc(C)n(Cc3c(F)cc(S(N)(=O)=O)cc3F)c2c1-c1ccccc1 [Example 26, 4-((2,6-dimethyl-7-phenyl-1H-imidazo[4,5-c]pyridin-1-yl)methyl)-3,5-difluorobenzenesulfonamide]
< 1 | < 1 | Cc1ncc2ncn(Cc3ccc(S(N)(=O)=O)cc3)c2c1-c1ccccc1 [Example 29, 4-((6-methyl-7-phenyl-1H-imidazo[4,5-c]pyridin-1-yl)methyl)benzene sulfonamide]
< 1 | < 1 | Cc1ncc2nc(C)n(Cc3c(F)cc(S(N)(=O)=O)cc3F)c2c1C [Example 63, 3,5-difluoro-4-((2,6,7-trimethyl-1H-imidazo[4,5-c]pyridin-1-yl)methyl)benzenesulfonamide]
< 1 | < 1 | Cc1ncc2nc(C)n(Cc3c(F)cc(S(N)(=O)=O)cc3F)c2c1-c1cccc(F)c1 [Example 45, 3,5-difluoro-4-((7-(3-fluorophenyl)-2,6-dimethyl-1H-imidazo[4,5-c]pyridin-1-yl)methyl)benzenesulfonamide]
1 to 10 | 1 to 10 | COc1ncc2c(C)cn(Cc3ccc(S(N)(=O)=O)cc3)c2c1-c1ccccn1 [Example 13, 4-((6-methoxy-3-methyl-7-(pyridin-2-yl)-1H-pyrrolo[3,2-c]pyridin-1-yl)methyl)benzenesulfonamide]
< 1 | < 1 | Cc1ncc2nc(C(F)(F)F)n(Cc3ncc(S(N)(=O)=O)cc3F)c2c1-c1ccccc1 [Example 69, 5-fluoro-6-((6-methyl-7-phenyl-2-(trifluoromethyl)-1H-imidazo[4,5-c]pyridin-1-yl)methyl)pyridine-3-sulfonamide]
1 to 10 | 1 to 10 | Cc1ncc2c(C)cn(Cc3c(F)cc(S(N)(=O)=O)cc3F)c2c1-c1ccn(C)n1 [Example 17, 4-((3,6-dimethyl-7-(1-methyl-1H-pyrazol-3-yl)-1H-pyrrolo[3,2-c]pyridin-1-yl)methyl)-3,5-difluorobenzenesulfonamide]
< 1 | < 1 | COc1ncc2nc(C)n(Cc3ncc(S(N)(=O)=O)cc3F)c2c1-c1ccccc1 [Example 73, 5-fluoro-6-((6-methoxy-2-methyl-7-phenyl-1H-imidazo[4,5-c]pyridin-1-yl)methyl)pyridine-3-sulfonamide]
< 1 | < 1 | COc1ncc2nc(C)n(Cc3ccc(S(N)(=O)=O)cc3F)c2c1-c1ccccc1 [Example 25]
100 to 1000 | > 1000 | COc1ncc2ccn(Cc3ccc(NS(N)(=O)=O)cc3)c2c1-c1ccn(C)n1 [Example 3, N-(4-((6-methoxy-7-(1-methyl-1H-pyrazol-3-yl)-1H-pyrrolo[3,2-c]pyridin-1-yl)methyl)phenyl) sulfamide]
< 1 | < 1 | CC#Cc1c(C)ncc2nc(C)n(Cc3c(F)cc(S(N)(=O)=O)cc3F)c12 [Example 64, 4-((2,6-dimethyl-7-(prop-1-yn-1-yl)-1H-imidazo[4,5-c]pyridin-1-yl)methyl)-3,5-difluorobenzenesulfonamide]
< 1 | < 1 | COc1ncc2nc(C)n(Cc3ccc(S(N)(=O)=O)cn3)c2c1-c1ccccc1 [Example 74, 6-((6-methoxy-2-methyl-7-phenyl-1H-imidazo[4,5-c]pyridin-1-yl)methyl)pyridine-3-sulfonamide]
< 1 | < 1 | Cc1ncc2nc(CN(C)C)n(Cc3c(F)cc(S(N)(=O)=O)cc3F)c2c1-c1ccccc1 [Example 49]
< 1 | < 1 | Cc1ncc2c(c1C1=CCCC1)n(Cc1c(F)cc(S(N)(=O)=O)cc1F)c(=O)n2C [Example 62, 4-((7-(cyclopent-1-en-1-yl)-3,6-dimethyl-2-oxo-2,3-dihydro-1H-imidazo[4,5-c]pyridin-1-yl)methyl)-3,5-difluorobenzenesulfonamide]
< 1 | < 1 | COc1ncc2c(c1-c1ccccc1)n(Cc1ncc(S(N)(=O)=O)cc1F)c(=O)n2C [Example 80, 5-fluoro-6-((6-methoxy-3-methyl-2-oxo-7-phenyl-2,3-dihydro-1H-imidazo[4,5-c]pyridin-1-yl)methyl)pyridine-3-sulfonamide]
< 1 | < 1 | COc1ncc2c(c1-c1ccccc1)n(Cc1ccc(S(N)(=O)=O)cn1)c(=O)n2C [Example 82, 6-((6-methoxy-3-methyl-2-oxo-7-phenyl-2,3-dihydro-1H-imidazo[4,5-c]pyridin-1-yl)methyl)pyridine-3-sulfonamide]
< 1 | < 1 | Cc1ncc(-c2ccccc2)c2c1ncn2Cc1ccc(S(N)(=O)=O)cc1 [Example 30, 4-((4-methyl-7-phenyl-1H-imidazo[4,5-c]pyridin-1-yl)methyl)benzene sulfonamide]
< 1 | < 1 | Cc1ncc2nc(CN3CCCC3)n(Cc3c(F)cc(S(N)(=O)=O)cc3F)c2c1-c1ccccc1 [Example 60, 3,5-difluoro-4-((6-methyl-7-phenyl-2-(pyrrolidin-1-ylmethyl)-1H-imidazo[4,5-c]pyridin-1-yl)methyl)benzenesulfonamide]
< 1 | < 1 | Cc1ncc2ncn(Cc3c(F)cc(S(N)(=O)=O)cc3F)c2c1-c1ccccc1 [Example 27, 3,5-difluoro-4-((6-methyl-7-phenyl-1H-imidazo[4,5-c]pyridin-1-yl)methyl)benzene sulfonamide]
< 1 | < 1 | Cc1ncc(-c2ccccc2)c2c1nc(C)n2Cc1ccc(S(N)(=O)=O)cc1 [Example 32, 4-((2,4-dimethyl-7-phenyl-1H-imidazo[4,5-c]pyridin-1-yl)methyl)benzene sulfonamide]
10 to 100 | 10 to 100 | COc1ncc2ccn(Cc3ccc(S(N)(=O)=O)cc3)c2c1-n1ccc(C)n1 [Example 8, 4-((6-methoxy-7-(3-methyl-1H-pyrazol-1-yl)-1H-pyrrolo[3,2-c]pyridin-1-yl)methyl)benzenesulfonamide]
< 1 | < 1 | Cc1ncc2nc(C)n(Cc3ccc(S(N)(=O)=O)nc3)c2c1-c1ccccc1 [Example 66, 5-((2,6-dimethyl-7-phenyl-1H-imidazo[4,5-c]pyridin-1-yl)methyl)pyridine-2-sulfonamide]
< 1 | < 1 | Cc1ncc2nc(C(F)(F)F)n(Cc3ccc(S(N)(=O)=O)cn3)c2c1-c1ccccc1 [Example 67, 6-((6-methyl-7-phenyl-2-(trifluoromethyl)-1H-imidazo[4,5-c]pyridin-1-yl)methyl)pyridine-3-sulfonamide]
< 1 | < 1 | Cc1nc2cnc(OC(F)F)c(-c3ccccc3)c2n1Cc1ccc(S(N)(=O)=O)cc1 [Example 33, 4-((6-(difluoromethoxy)-2-methyl-7-phenyl-1H-imidazo[4,5-c]pyridin-1-yl)methyl)benzenesulfonamide]
